Experimental data taken from PubChem BioAssay (NCI).
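Five compound concentrations were applied to cells in 96-well plates for 48 hours; endpoints were derived by simple linear interpolation of the resulting dose-response curve. The concentration for full growth arrest is given as TGI.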

How the values were obtained:
Test in all cases: NCI tumour cell line growth inhibition, 48 h
[1] = system: OVCAR-3 ovarian
[2] = system: HOP-62 NSCLC
[3] = system: HCT-15 colon
[4] = system: OVCAR-5 ovarian
[5] = system: HS 578T breast
[6] = system: HL-60(TB) leukemia
[7] = system: UACC-62 melanoma
[8] = system: CCRF-CEM leukemia
[9] = system: NCI/ADR-RES ovarian
[10] = system: MDA-N
[11] = system: SW-620 colon
[12] = system: CAKI-1 renal
[13] = system: SK-MEL-2 melanoma
[14] = system: KM12 colon
[15] = system: NCI-H23 lung
[16] = system: M14 melanoma
[17] = system: MALME-3M melanoma
[18] = system: A549 NSCLC
[19] = system: K-562 leukemia
[20] = system: SR leukemia

Cn1c(=O)c2c(nc3sc4ncccc4c(=O)n32)n(C)c1=O
TGI [1]: > 100 µM
TGI [2]: > 100 µM
TGI [3]: > 100 µM
TGI [4]: > 100 µM
TGI [5]: > 100 µM
TGI [6]: > 100 µM
TGI [7]: > 100 µM
TGI [8]: > 100 µM
TGI [9]: > 100 µM
TGI [10]: > 100 µM
TGI [11]: > 100 µM
TGI [12]: > 100 µM
TGI [13]: > 100 µM
TGI [14]: > 100 µM
TGI [15]: > 100 µM
TGI [16]: > 100 µM

C/C(=C\[C@H]1C[C@@H]([C@@H]2CC[C@]34C[C@]23C=C[C@@H]2[C@@]3(C)CC=C5C[C@@H](c6ccccc6)OC[C@]5(C)[C@@H]3C[C@@H](O)[C@]24C)C(=O)O1)CO
TGI [1]: > 100 µM
TGI [2]: > 100 µM
TGI [3]: 25.3 µM
TGI [17]: 82.5 µM
TGI [4]: 34.2 µM
TGI [5]: > 72.2 µM
TGI [7]: > 71.2 µM
TGI [18]: > 100 µM
TGI [8]: > 100 µM
TGI [9]: > 100 µM
TGI [10]: 13.2 µM
TGI [11]: > 100 µM
TGI [12]: 28.3 µM
TGI [13]: > 100 µM
TGI [14]: 15.3 µM
TGI [15]: 36 µM
TGI [19]: > 100 µM
TGI [16]: > 100 µM

CC1OC2OC3C(OCC(O)C3O)OC(=O)[C@]34CCC(C)(C)CC3C3=CCC5[C@@]6(C)C[C@H](O)[C@H](OC7OC(CO)C(O)C(O)C7OC7OC(COC(=O)CC(C)(O)CC(=O)OC1C(O)C2O)C(O)C(O)C7O)[C@@](C)(CO)C6CC[C@@]5(C)[C@]3(C)CC4 (some centres undefined)
TGI [1]: 3.15 µM
TGI [2]: 2.69 µM
TGI [3]: 2.91 µM
TGI [4]: 2.85 µM
TGI [5]: 3.54 µM
TGI [6]: 2.87 µM
TGI [7]: 2.81 µM
TGI [18]: 2.63 µM
TGI [9]: 11.9 µM
TGI [10]: 2.73 µM
TGI [11]: 2.44 µM
TGI [12]: 2.74 µM
TGI [13]: 2.85 µM
TGI [14]: 2.89 µM
TGI [15]: 3.08 µM
TGI [16]: 2.76 µM

COc1ccc(-n2nnnc2C2(Nc3ccccc3)CCN(Cc3ccccc3)CC2)cc1
TGI [2]: 56.2 µM
TGI [3]: 25.1 µM
TGI [17]: 27.3 µM
TGI [4]: 48.8 µM
TGI [5]: 28.8 µM
TGI [6]: 8.14 µM
TGI [7]: 31.1 µM
TGI [20]: > 100 µM
TGI [18]: 45.8 µM
TGI [8]: > 100 µM
TGI [9]: 51 µM
TGI [11]: 38.3 µM
TGI [14]: 18.8 µM
TGI [15]: 57.9 µM
TGI [19]: 15.4 µM
TGI [16]: 32 µM

O=C1c2ccc3ccccc3c2CCC1N1CCCCC1 (centres undefined)
TGI [1]: 28.8 µM
TGI [2]: 34 µM
TGI [3]: 37.4 µM
TGI [17]: 31.4 µM
TGI [4]: 37.9 µM
TGI [5]: 44.9 µM
TGI [6]: 49.6 µM
TGI [7]: 30.3 µM
TGI [20]: 36.6 µM
TGI [18]: 36.3 µM
TGI [9]: 46.3 µM
TGI [11]: 34.5 µM
TGI [12]: 29.5 µM
TGI [13]: 44.4 µM
TGI [14]: 31.6 µM
TGI [15]: 40.2 µM
TGI [19]: 35 µM

Oc1ccc2c3c1OC1c4[nH]c5c(c4CC4(O)C(C2)N(CC2CC2)CC[C@]314)CC1(O)C2Cc3ccc(O)c4c3[C@@]1(CCN2CC1CC1)C5O4 (some centres undefined)
TGI [1]: 35.8 µM
TGI [2]: > 100 µM
TGI [3]: > 100 µM
TGI [17]: 31.6 µM
TGI [4]: 74.9 µM
TGI [6]: 41.4 µM
TGI [7]: 43.7 µM
TGI [20]: 57.5 µM
TGI [18]: 37.6 µM
TGI [9]: > 100 µM
TGI [10]: 38.9 µM
TGI [11]: 53.8 µM
TGI [12]: > 100 µM
TGI [13]: 44.8 µM
TGI [14]: 32.2 µM
TGI [15]: > 100 µM
TGI [19]: 63.9 µM
TGI [16]: 32 µM

Cc1ccc(C(=O)Nc2ccc(CP(=O)(O)O)cc2)cc1NC(=O)Nc1cc(C(=O)Nc2ccc(CP(=O)(O)O)cc2)ccc1C
TGI [1]: > 100 µM
TGI [2]: > 100 µM
TGI [3]: > 100 µM
TGI [17]: > 100 µM
TGI [4]: > 100 µM
TGI [5]: > 100 µM
TGI [6]: > 100 µM
TGI [7]: > 100 µM
TGI [18]: > 100 µM
TGI [8]: > 100 µM
TGI [9]: > 100 µM
TGI [10]: > 100 µM
TGI [11]: > 100 µM
TGI [12]: > 100 µM
TGI [13]: > 100 µM
TGI [14]: > 100 µM
TGI [15]: > 100 µM
TGI [16]: > 100 µM
